Measured values published in US20100035865A1, “Sulfonamides and Pharmaceutical Compositions Thereof” (PFIZER INC, priority 2007, published 2010).
Where “and” joins values, the source holds several entries; their conditions need not be identical. Identical values can stand only once. Like-named read-outs stand apart in the source and are kept apart here.

How the values were obtained:
[1] = system: AMPA receptors; experiment: AMPA ES Cell FLIPR Screen, G7330B (EC50 and % effect); type: cell-based, murine; conditions: for EC50: ES cell-derived neurons, 32 uM AMPA challenge
Method: (§1) The murine ES cell line used was E14-Sx1-16C, which has a targeted mutation in the Sox1 gene, a neuroectodermal marker, that offers G418 resistance when the Sox1 gene is expressed (Stem Cell Sciences). ES cells were maintained undifferentiated as previously described (Roach). […] ES cells were plated on gelatin-coated dishes (BD Biosciences), the media was changed daily and the cells were dissociated with 0.05% Trypsin EDTA (Invitrogen) every other day.
(§2) Embryoid Body Formation: Prior to embryoid body (EB) formation the ES cells were weaned from FBS onto Knockout Serum Replacement (KSR) (Invitrogen). To form EBs, ES cells were dissociated into a single cell suspension then 3×10^6 cells were plated in bacteriology dishes (Nunc 4014) and grown as a suspension culture in NeuroEB-I medium that consisted of Knockout™ D-MEM (Invitrogen), supplemented with 10% KSR (Invitrogen), 0.2 mM L-Glutamine (Invitrogen), 0.1 mM MEM non-essential amino acids (Invitrogen), 30 μg/ml Gentamicin (Invitrogen), 1000 u/ml ESGRO (Chemicon), 0.1 mM 2-Mercaptoethanl (Sigma) and 150 ng/ml Transferrin (Invitrogen). The plates were put on a Stovall Belly Button shaker in an atmospheric oxygen incubator. The media was changed on day 2 of EB formation with NeuroEB-I and on day 4 with NeuroEB-II (NeuroEB-I plus 1 μg/ml mNoggin [R&D Systems]).
(§3) Neuronal Precursor Selection and Expansion: On day 5 of EB formation, EBs were dissociated with 0.05% Trypsin EDTA, and 4×10^6 cells/100 mm dish were plated on Laminin coated tissue culture dishes in NeuroII-G418 medium that consisted of a base medium of a 1:1 mixture of D-MEM/F12 supplemented with N2 supplements and NeuroBasal Medium supplemented with B27 supplement and 0.1 mM L-Glutamine (all from Invitrogen). The base medium was then supplemented with 10 ng/ml bFGF (Invitrogen), 1 μg/ml mNoggin, 500 ng/ml SHH-N, 100 ng/ml FGF-8b (R&D Systems), 1 μg/ml Laminin and 200 μg/ml G418 (Invitrogen) for selection of neuronal precursors expressing Sox-1. The plates were put in an incubator that contained 2% Oxygen and were maintained in these conditions. During the 6-day selection period, the NeuroII media was changed daily. On day 6, the surviving neuronal precursor foci were dissociated with 0.05% Trypsin EDTA and the cells were plated at a density of 1.5×10^6 cells/100 mm Laminin coated dish in NeuroII-G418 medium. The cells were dissociated every other day for expansion, and prepared for Cryopreservation at passage 3 or 4. The cryopreservation medium contained 50% KSR, 10% Dimethyl Sulfoxide (DMSO) (Sigma) and 40% NeuroI-G418I medium. Neuronas precursors were crypreserved at a concentration of 4×10^6cells/ml and 1 ml/cryovial in a controlled rate freezer overnight then transferred to an ultra-low freezer or liquid nitrogen for long-term storage,
(§4) Neuronal Differentiation: Cryopreserved ES cell-derived neuronal precursors were thawed by the rapid thaw method in a 37-degree water-bath. The cells were transferred from the cryovial to a 100 mm Laminin coated tissue culture dish that already contained NeuroII-G418 that had been equilibrated in a 2% Oxygen incubator. The media was changed with fresh NeuroII-G418 the next day. The cells were dissociated every other day as described above for expansion to generate enough cells to plate for the screen. For the screen, the cells were plated into 384-well poly-d-lysine coated tissue culture dishes (BD Biosciences) by the automated SelecT at a cell density of 6K cells/well in differentiation medium NeuroIII that contained a 4:1 ratio of the NeuroBasalMedium/B27:D-MEM/F12/N2 supplemented with 1 μM cAMP (Sigma), 200 μM Ascorbic Acid (Sigma), 1 μg/ml Laminin (Invitrogen) and 10 ng/ml BDNF (R&D Systems). The plates were put in an incubator with 2% Oxygen and allowed to complete the differentiation process for 7 days. The cells could then be used over a 5-day period for the high throughput screen.
(§5) Procedure for AMPA ES Cell FLIPR Screen […]

[2] = system: AMPA receptors; experiment: AMPA ES Cell FLIPR Screen, G7330A (single dose % effect); type: cell-based, murine; conditions: Dose 32.0 uM; mean (range and n in cells below); ES cell-derived neurons, 32 uM AMPA challenge; negative control AMPA alone, positive control AMPA plus cyclothiazide
Method: as §1, §2, §3, §4, §5

[3] = Dose 32.0 uM, individual determinations
[4] = individual determinations, read-out: G7330B (U): EC50
[5] = mean of individual determinations (range and n in cells below), read-out: G7330B mean EC50
[6] = Dose 31.6 uM, individual determinations

| Structure (SMILES) | G7330B (U): % Effect [1, 3] | EC50 [1, 4] | EC50 [1, 5] [µM] | G7330A: % Effect [2] [%] | G7330B (U): % Effect [1, 6] |
| --- | --- | --- | --- | --- | --- |
| CCS(=O)(=O)N[C@@H]1CNCC[C@H]1c1ccc(-c2ccccc2)cc1 (relative stereo) [Example 9, Ethanesulfonic acid (trans-4-biphenyl-4-yl-piperidin-3-yl)-amide] | 73.4% and 60.8% and 66.9% | > 32 µM | > 32 | 59.1 |  |
| CCCS(=O)(=O)N[C@@H]1CNCC[C@@H]1c1ccc(-c2ccccc2)cc1 (relative stereo) [Example 12, Propane-1-sulfonic acid(cis-4-biphenyl-4-yl-piperidin-3-yl)-amide] | 0.428% and −0.204% and −0.02059% and 0.243% |  |  | 0.110 |  |
| O=S(=O)(CC(F)(F)F)NC1CNCCC1c1ccc(-c2ccccc2)cc1 (stereo not drawn) [Example 13, 2,2,2-Trifluoro-ethanesulfonic acid(trans-4-biphenyl-4-yl-piperidin-3-yl)-amide] | 27.9% and 46.2% and 59.8% and 48.9% and 30.2% and 28.1% | > 32 µM | > 32 | 43.7 |  |
| CC(C)S(=O)(=O)N[C@@H]1CN(C)CC[C@H]1c1ccc(-c2ccccc2)cc1 (relative stereo) [Example 2, propane-2-sulfonic acid (trans-4-biphenyl-4-yl-1-methyl-piperidin-3-yl)-amide] | 127% and 141% and 134% and 142% and 151% and 173% and 180% | 4.43 µM and 5.97 µM and 3.78 µM and 8.04 µM | 5.32 | 112 |  |
| CS(=O)(=O)N[C@@H]1CNCC[C@H]1c1ccc(-c2ccccc2)cc1 (relative stereo) [Example 8, N-(trans-4-Biphenyl-4-yl-piperidin-3-yl)-methanesulfonamide] | 62.1% and 46.9% and 54.7% and 34.7% and 36.6% and 38.0% | > 32 µM | > 32 | 56.3 |  |
| CC(C)S(=O)(=O)N[C@@H]1CN(C)CC[C@@H]1c1ccc(-c2ccccc2)cc1 (relative stereo) [Example 7, propane-2-sulfonic acid (cis-4-biphenyl-4-yl-1-methyl-piperidin-3-yl)-amide] |  |  |  | −0.867 | −0.0209% and −0.612% and −1.41% and −1.42% |
| O=S(=O)(NC1CNCCC1c1ccc(-c2ccccc2)cc1)C1CC1 (stereo not drawn) [Example 14, Cyclopropanesulfonic acid(trans-4-biphenyl-4-yl-piperidin-3-yl)-amide] | 4.61% and 2.97% and 3.26% and 0.0952% and 0.150% and 1.02% | > 32 µM | > 32 | 3.36 |  |
| CCCS(=O)(=O)N[C@@H]1CNCC[C@H]1c1ccc(-c2ccccc2)cc1 (relative stereo) [Example 10, Propane-1-sulfonic acid (trans-4-biphenyl-4-yl-piperidin-3-yl)-amide] | 23.4% and 19.5% and 18.5% and 5.64% and 6.55% and 7.27% | > 32 µM | > 32 | 11.2 |  |
| CC(C)S(=O)(=O)N[C@@H]1CCNC[C@H]1c1ccc(-c2ccccc2C(N)=O)cc1 (relative stereo) [Example 21, 4′-[trans-4-(Propane-2-sulfonylamino)-piperidin-3-yl]-biphenyl-2-carboxylic acid amide] | 0.573% and 0.266% and 0.149% | > 32 µM | > 32 |  |  |
| CC(C)S(=O)(=O)NC1CCN(C)CC1c1ccc(-c2ccccc2)cc1 (stereo not drawn) [Example 25, Propane-2-sulfonic acid(trans-3-biphenyl-4-yl-1-methyl-piperidin-4-yl)-amide] | −0.323% and 0.295% and 2.72% | > 32 µM | > 32 |  |  |
| CC(C)S(=O)(=O)NC1CCOCC1c1ccc(-c2ccccc2)cc1 (stereo not drawn) [Example 17, Propane-2-sulfonic acid(cis-3-biphenyl-4-yl-tetrahydro-pyran-4-yl)-amide] | 150% and 138% and 125% | 7.17 µM | 7.17 |  |  |
| CC(C)S(=O)(=O)NC1CN(S(C)(=O)=O)CCC1c1ccc(-c2ccccc2)cc1 (stereo not drawn) [Example 6, propane-2-sulfonic acid (trans-4-biphenyl-4-yl-1-methanesulfonyl-piperidin-3-yl-amide] |  | > 31.6 µM | > 31.6 |  | 0.710% and −1.26% and 0.0628% |
| CC(=O)N1CCC(NS(=O)(=O)C(C)C)C(c2ccc(-c3ccccc3)cc2)C1 (stereo not drawn) [Example 27, propane-2-sulfonic acid(trans-1-acetyl-3-biphenyl-4-yl-piperidin-4-yl)-amide] | 136% and 134% and 127% | 6.92 µM | 6.92 |  |  |
| CC(C)S(=O)(=O)NC1CCN(S(C)(=O)=O)CC1c1ccc(-c2ccccc2)cc1 (stereo not drawn) [Example 26, Propane-2-sulfonic acid(trans-3-biphenyl-4-yl-1-methanesulfonyl-piperidin-4-yl)-amide] | 13.3% and 10.8% and 9.95% | > 32 µM | > 32 |  |  |
| CC(=O)N1CCC(NS(=O)(=O)C(C)C)C(c2ccc(-c3ccc(C#N)cc3)cc2)C1 (stereo not drawn) [Example 28, Propane-2-sulfonic acid[trans-1-acetyl-3-(4′-cyano-biphenyl-4-yl)-piperidin-4-yl]-amide] | 128% and 132% and 116% | 6.44 µM | 6.44 |  |  |
| CC(C)S(=O)(=O)NC1CCNCC1c1ccc(-c2ccccc2)cc1 (stereo not drawn) [Example 18, Propane-2-sulfonic acid(trans-3-biphenyl-4-yl-piperidin-4-yl)-amide] | 5.77% and 3.59% and 3.97% | > 32 µM | > 32 |  |  |
| CC(C)S(=O)(=O)N[C@@H]1CN(C)CC[C@H]1c1ccc(-c2ccccc2)cc1 [Example 4, Propane-2-sulfonic acid ((3S,4S)-4-biphenyl-4-yl-1-methyl-piperidin-3-yl)-amide] | 4.29% and 2.21% and 2.27% and 2.45% and 2.50% and 6.32% and 2.96% and 5.62% and 0.525% | > 32 µM | > 32 |  |  |
| CC(C)S(=O)(=O)NC1CCNCC1c1ccc(-c2ccccc2C#N)cc1 (stereo not drawn) [Example 20, Propane-2-sulfonic acid[trans-3-(2′-cyano-biphenyl-4-yl)-piperidin-4-yl]-amide] | 39.9% and 48.6% and 44.4% | > 32 µM | > 32 |  |  |
| CC(C)S(=O)(=O)NC1CCN(C)CC1c1ccc(-c2ccc(C#N)cc2)cc1 (stereo not drawn) [Example 24, Propane-2-sulfonic acid[trans-3-(4′-cyano-biphenyl-4-yl)-1-methyl-piperidin-4-yl]-amide] |  | > 31.6 µM | > 31.6 |  | 14.5% and 19.9% and 12.7% |
| CC(C)S(=O)(=O)N[C@H]1COCC[C@]1(O)c1ccc(-c2ccccc2)cc1 (relative stereo) [Example 41, Propane-2-sulfonic acid((3S,4S)-rel-4-biphenyl-4-yl-4-hydroxytetrahydro-pyran-3-yl)-amide] |  | 3.05 µM | 3.05 |  | 58.3% and 66.6% |
| CC(C)S(=O)(=O)N[C@@H]1COCC[C@H]1c1ccc(-c2ccc(S(C)(=O)=O)cc2)cc1 [Example 37, Propane-2-sulfonic acid[trans-4-(4′-methanesulfonyl-biphenyl-4-yl)-tetrahydro-pyran-3-yl]-amide] |  | > 10 µM | > 10 |  |  |
